{
  "source": "paper PMC4521150",
  "about": "“Discovery of Novel Inhibitors and Fluorescent Probe Targeting NAMPT” (Scientific Reports, 2015)",
  "biological_target": "T1, recombinant human NAMPT (Homo sapiens, UniProt P43490)",
  "T1 construct": "His tag (N); made in house; host or cells: E. coli BL21-CodonPlus (DE3)-RIL, pET21a+ vector",
  "T1 sequence (P43490 whole entry)": "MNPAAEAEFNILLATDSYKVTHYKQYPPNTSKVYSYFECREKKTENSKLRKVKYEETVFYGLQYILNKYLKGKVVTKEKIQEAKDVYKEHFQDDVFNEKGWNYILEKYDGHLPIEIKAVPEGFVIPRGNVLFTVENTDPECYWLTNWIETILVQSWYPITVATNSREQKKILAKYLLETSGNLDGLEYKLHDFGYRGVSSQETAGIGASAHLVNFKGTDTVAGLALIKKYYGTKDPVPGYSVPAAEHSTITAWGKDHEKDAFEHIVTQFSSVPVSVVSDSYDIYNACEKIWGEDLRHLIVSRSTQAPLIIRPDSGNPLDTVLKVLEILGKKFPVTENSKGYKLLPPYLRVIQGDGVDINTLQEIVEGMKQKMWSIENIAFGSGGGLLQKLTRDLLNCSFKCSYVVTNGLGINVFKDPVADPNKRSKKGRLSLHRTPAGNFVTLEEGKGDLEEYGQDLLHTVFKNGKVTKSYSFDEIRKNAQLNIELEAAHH",
  "experiment": "HTS / fixed-concentration NAMPT activity screen (fluorometric)",
  "format": "biochemical",
  "conditions": "20 μM compound; analogues of the 46 non-fluorescent inhibitors",
  "description": "Using our previously established high throughput screening (HTS) platform and recombinant human NAMPT[14][15], we performed a HTS on a chemical library containing 30000 small-molecules (Chemdiv, CA, USA). Our HTS targeting NAMPT was developed based on a fluorometric method for NAMPT activity assay by measuring the fluorescence of nicotinamide mononucleotide (NMN) derivative resulting from the NAMPT enzymatic product NMN through simple chemical reactions (Fig. 1A). The 30000 compounds were dissolved with dimethyl sulfoxide (DMSO); most of compounds were soluble at 10 mM stock solution (94.1%), some compounds insoluble at 10 mM were soluble at 2.5 mM stock solution (4.4%), and the remaining compounds insoluble at 2.5 mM (1.5%) were diluted further during HTS experiments (Fig. 1B). To guarantee the quality of screening, S/N ratio, CV and Z’ factors were monitored throughout the screenings, and all three indices met the requirements of HTS (Fig. 1C–E). After a primary screen and a secondary screen of all compounds at 20 μM, 242 compounds were selected as the hits of NAMPT inhibitors (NAMPT activity < 40%), and the hit rate was ~0.8% (Fig. 1F). […] All these 55 compounds were not reported as NAMPT inhibitors previously. Among the 55 compounds, we noted 46 compounds were non-fluorescent and 9 compounds were fluorescent (Fig. 1F). These fluorescent and non-fluorescent compounds were further studied separately.\nHTS was performed using our previously reported method. 0.5 μl stock of each compound (1 mM DMSO stock) was transferred to a 96-well PCR plate for screening. In the primary screening, 5 ng NAMPT in 20 μl reaction buffer [0.4 mM phosphoribosylpyrophosphate (PRPP, Sigma), 2 mM ATP, 0.02% BSA, 2 mM DTT, 12 mM MgCl2 and 50 mM Tris-HCl (pH = 7.5)] was added into each well, the plate was incubated at 37 °C for 5 min, then 4.5 μl substrate of NAM was added to initiate the enzyme reaction, resulting in a final concentration of 2% DMSO, 2 μg/ml NAMPT, 0.2 μM NAM and 20 μM compound. After reacting at 37 °C for 15 min, the enzyme reaction was terminated by heating at 95 °C for 1 min and cooling in an ice bath. The product of NMN was detected through the following approach: after adding 10 μl 20% acetophenone in DMSO and 10 μl 2 M KOH into each well, the mixture was vortex-mixed and kept in ice bath for 2 min. Then 45 μl 88% formic acid was added and the mixture was incubated at 37 °C for 10 min. Finally, 85 μl mixtures in each well were transferred into a flat-bottom 96-well black plate (Greiner), and the fluorescence (F) was measured using a Tecan Infinity M200 plate reader (Tecan Group Ltd.) by setting the excitation and emission wavelength to 382 nm and 445 nm respectively. The last row of each 96-well plate includes six wells of background controls and six wells of reference controls. The relative enzyme activity (Activity%) regulated by specific compound was calculated according to equation (1):\nF0 was the averaged fluorescence of six background controls, representing zero activity from a simulated enzyme reaction with only NAMPT but no NAM and compound; F100% was the averaged fluorescence of six reference controls, representing 100% activity from intact enzyme reaction without compound perturbation.\nCompounds with Activity% less than 40% were considered as inhibitors and subjected to a secondary screen inhibition validation, in which another background control (FC0), a simulated enzyme reaction with NAMPT and compound but no NAM, was introduced to eliminate the direct and/or indirect influence from compound. At this stage, the Activity% was calculated according to equation (2): […]",
  "data": [
    {"compound": "CCCn1c(=O)c(-c2ccc(C(=O)NCc3cccnc3)cc2)nc2ccccc21", "note": "[M049-0244]", "values": [
      {"measurement": "NAMPT inhibition activity at 20 μM", "result": "Yes"}
    ]}
  ]
}
